Experimental data reported in patent US6653300B2, “Pyrazole compounds useful as protein kinase inhibitors” (Vertex Pharmaceuticals Incorporated, priority 2000, dated 2003).
Where two headings read alike, the source gives them in different places.

Assays:
GSK-3β (AA 1-420) = target: T1, GSK-3β (AA 1-420) (Homo sapiens, UniProt P49841); assay: Ki determination for the inhibition of GSK-3 (coupled enzyme system); format: biochemical; conditions: 20 μM ATP, 20 nM GSK-3β, 30° C.
T1 construct: GSK-3β (AA 1-420)
T1 sequence (P49841 whole entry, the tested form may be a part): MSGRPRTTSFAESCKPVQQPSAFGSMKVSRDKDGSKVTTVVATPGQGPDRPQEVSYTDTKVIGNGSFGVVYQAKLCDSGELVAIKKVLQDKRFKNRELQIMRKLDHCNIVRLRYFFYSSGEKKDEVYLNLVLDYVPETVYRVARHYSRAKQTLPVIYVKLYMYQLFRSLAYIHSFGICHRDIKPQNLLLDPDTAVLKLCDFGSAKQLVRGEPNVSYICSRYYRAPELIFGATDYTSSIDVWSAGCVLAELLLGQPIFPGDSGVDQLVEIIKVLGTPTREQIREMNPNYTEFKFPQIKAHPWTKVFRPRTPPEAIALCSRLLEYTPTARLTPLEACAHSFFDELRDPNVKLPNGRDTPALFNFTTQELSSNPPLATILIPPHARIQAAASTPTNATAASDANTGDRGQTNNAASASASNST
Method in brief: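 GSK-3β (AA 1-420, 20 nM) was run in a pyruvate kinase/LDH-coupled NADH assay in 100 mM HEPES pH 7.5, 10 mM MgCl2, 25 mM NaCl, 1 mM DTT, 1.5% DMSO, with 300 μM phosphopeptide substrate. Compound (0.002–30 μM) was preincubated 10 min at 30° C, then 20 μM ATP was added.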

Aurora-2 = target: T2, Aurora-2 (Homo sapiens, UniProt O14965); assay: Ki determination for the inhibition of Aurora-2 (coupled enzyme assay); format: biochemical; conditions: 70 nM Aurora-2, 30° C.
T2 sequence (O14965 1-403): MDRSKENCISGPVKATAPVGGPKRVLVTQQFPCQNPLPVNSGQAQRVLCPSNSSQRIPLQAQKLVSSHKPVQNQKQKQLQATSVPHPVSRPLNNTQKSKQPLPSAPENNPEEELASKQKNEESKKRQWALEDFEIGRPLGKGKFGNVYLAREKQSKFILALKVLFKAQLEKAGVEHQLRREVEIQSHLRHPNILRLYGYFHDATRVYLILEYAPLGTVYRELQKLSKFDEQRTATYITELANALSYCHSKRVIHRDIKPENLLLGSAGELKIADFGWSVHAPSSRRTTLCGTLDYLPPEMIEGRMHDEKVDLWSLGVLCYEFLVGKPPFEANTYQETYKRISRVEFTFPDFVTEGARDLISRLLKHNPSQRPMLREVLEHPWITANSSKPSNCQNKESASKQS
Method in brief: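 Ki came from reaction rates plotted against inhibitor concentration, with rates taken as A340 decrease over 5 min at 30° C. Enzyme (70 nM final) was added after 10 min compound preincubation; stock buffer held […], 800 μM LRRASLG, PK/LDH coupling, pH 7.5.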

CDK-2/Cyclin A = CDK-2/Cyclin A (Homo sapiens, UniProt P24941); assay: CDK-2 inhibition assay (coupled enzyme assay); format: biochemical; conditions: 25 nM CDK-2/Cyclin A, 30° C.
Protocol: Compounds were screened in the following manner for their ability to inhibit CDK-2 using a standard coupled enzyme assay (Fox et al (1998) Protein Sci 7, 2249).
To an assay stock buffer solution containing 0.1M HEPES 7.5, 10 mM MgCl2, 1 mM DTT, 25 mM NaCl, 2.5 mM phosphoenolpyruvate, […], 30 mg/ml pyruvate kinase, 10 mg/ml lactate dehydrogenase, 100 mM ATP, and 100 μM peptide ([…], American Peptide, Sunnyvale, Calif.) was added a DMSO solution of a compound of the present invention to a final concentration of 30 μM. The resulting mixture was incubated at 30° C. for 10 min.
The reaction was initiated by the addition of 10 μL of CDK-2/Cyclin A stock solution to give a final concentration of 25 nM in the assay. The rates of reaction were obtained by monitoring absorbance at 340 nm over a 5-minute read time at 30° C. using a BioRad Ultramark plate reader (Hercules, Calif.). The Ki values were determined from the rate data as a function of inhibitor concentration.

activated ERK2 = activated ERK2 (Homo sapiens, UniProt P28482); assay: ERK inhibition assay (spectrophotometric coupled-enzyme assay); format: biochemical; conditions: 10 nM activated ERK2, 65 μM ATP, 30° C.; read-out: Ki values for ERK-2
Chain of activated ERK2 (P28482 whole entry): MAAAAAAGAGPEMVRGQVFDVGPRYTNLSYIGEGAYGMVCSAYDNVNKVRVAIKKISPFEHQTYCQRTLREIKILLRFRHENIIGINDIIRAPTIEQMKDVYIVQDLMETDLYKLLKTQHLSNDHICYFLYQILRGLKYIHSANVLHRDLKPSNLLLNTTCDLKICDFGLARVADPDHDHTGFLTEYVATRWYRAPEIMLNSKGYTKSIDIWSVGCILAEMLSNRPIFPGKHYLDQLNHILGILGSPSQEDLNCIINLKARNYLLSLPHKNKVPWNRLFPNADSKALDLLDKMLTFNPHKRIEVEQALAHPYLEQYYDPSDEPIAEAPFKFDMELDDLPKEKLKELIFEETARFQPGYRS
Protocol: Compounds were assayed for the inhibition of ERK2 by a spectrophotometric coupled-enzyme assay (Fox et al (1998) Protein Sci 7, 2249).

AKT-3 = AKT-3 (Homo sapiens, UniProt Q9Y243); assay: AKT inhibition assay (coupled enzyme assay); format: biochemical; conditions: 45 nM AKT, 170 μM ATP, 30° C.
Chain of AKT-3 (Q9Y243 whole entry, species assumed): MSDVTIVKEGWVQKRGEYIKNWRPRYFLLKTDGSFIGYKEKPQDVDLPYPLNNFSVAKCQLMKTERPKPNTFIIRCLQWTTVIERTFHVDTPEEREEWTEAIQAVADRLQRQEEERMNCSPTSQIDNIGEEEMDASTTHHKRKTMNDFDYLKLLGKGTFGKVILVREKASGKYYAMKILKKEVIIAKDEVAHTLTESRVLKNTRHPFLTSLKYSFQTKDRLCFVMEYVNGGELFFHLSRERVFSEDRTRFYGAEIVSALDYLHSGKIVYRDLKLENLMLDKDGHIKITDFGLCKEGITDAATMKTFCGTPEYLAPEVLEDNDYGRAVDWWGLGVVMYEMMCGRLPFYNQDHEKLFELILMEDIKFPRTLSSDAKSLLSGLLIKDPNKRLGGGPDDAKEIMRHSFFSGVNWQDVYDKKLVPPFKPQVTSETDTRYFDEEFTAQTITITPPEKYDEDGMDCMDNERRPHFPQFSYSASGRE
Protocol: Compounds were screened for their ability to inhibit AKT using a standard coupled enzyme assay (Fox et al., Protein Sci., (1998) 7, 2249). Assays were carried out in a mixture of 100 mM HEPES 7.5, 10 mM MgCl2, 25 mM NaCl, 1 mM DTT and 1.5% DMSO. Final substrate concentrations in the assay were 170 μM ATP (Sigma Chemicals) and 200 μM peptide (RPRAATF, American Peptide, Sunnyvale, Calif.). Assays were carried out at 30° C. and 45 nM AKT. Final concentrations of the components of the coupled enzyme system were 2.5 mM phosphoenolpyruvate, 300 μM NADH, 30 μg/ML pyruvate kinase and 10 μg/ml lactate dehydrogenase.
An assay stock buffer solution was prepared containing all of the reagents listed above, with the exception of AKT, DTT, and the test compound of interest. 56 μl of the stock solution was placed in a 384 well plate followed by addition of 1 μl of 2 mM DMSO stock containing the test compound (final compound concentration 30 μM). The plate was preincubated for about 10 minutes at 30° C. and the reaction initiated by addition of 10 μl of enzyme (final concentration 45 nM) and 1 mM DTT. Rates of reaction were obtained using a BioRad Ultramark plate reader (Hercules, Calif.) over a 5 minute read time at 30° C.

human Src kinase = target: T3, human Src kinase (Homo sapiens, UniProt P12931); assay: SRC inhibition assay (radioactivity-based or spectrophotometric assay); format: biochemical; conditions: recombinant human Src kinase, assay A or B
T3 construct: full length recombinant human Src kinase (from Upstate Biotechnology, cat. no. 14-117); purchased Upstate Biotechnology 14-117; host or cells: baculo viral cells
T3 sequence (P12931 whole entry): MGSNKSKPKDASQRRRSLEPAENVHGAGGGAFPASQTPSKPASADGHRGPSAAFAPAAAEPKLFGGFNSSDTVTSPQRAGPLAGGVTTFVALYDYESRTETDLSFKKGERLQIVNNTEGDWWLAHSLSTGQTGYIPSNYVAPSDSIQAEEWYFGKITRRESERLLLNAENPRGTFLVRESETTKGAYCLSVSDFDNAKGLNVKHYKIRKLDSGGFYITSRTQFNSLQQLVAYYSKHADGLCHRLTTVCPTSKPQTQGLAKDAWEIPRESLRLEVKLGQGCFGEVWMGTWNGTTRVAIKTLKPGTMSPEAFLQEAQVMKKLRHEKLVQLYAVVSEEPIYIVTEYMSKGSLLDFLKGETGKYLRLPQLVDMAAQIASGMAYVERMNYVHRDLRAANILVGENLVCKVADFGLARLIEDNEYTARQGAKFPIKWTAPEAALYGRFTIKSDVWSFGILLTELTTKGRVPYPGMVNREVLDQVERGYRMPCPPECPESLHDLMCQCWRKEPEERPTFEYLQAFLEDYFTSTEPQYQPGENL
Method in brief: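 Full-length recombinant human Src from baculovirus was used. In the radiometric format, enzyme was preincubated 10 min at 30 °C, the reaction was started with ^33P-ATP and run 20 min, then TCA-quenched and filter-counted. The alternative format monitored poly Glu-Tyr phosphorylation by NADH-coupled A340 rate. Ki came from competitive-inhibition fits.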

Ki (GSK-3β (AA 1-420)) | Ki (Aurora-2) | Ki (CDK-2/Cyclin A) | Ki (activated ERK2) | Ki (AKT-3) | melting point | Ki (human Src kinase; read-out: Ki value on SRC) | SMILES | Ki (human Src kinase; read-out: Ki value for SRC)
< 0.1 µM | < 0.1 µM | < 1 µM | < 1 µM | 1 to 20 µM | 236 to 239 °C | – | Cc1cc(Nc2nc(Nc3ccc4ncsc4c3)nc3ccccc23)n[nH]1 [IIc-53, [2-(Benzothiazol-6-ylamino)-quinazolin-4-yl]-(5-methyl-2H-pyrazol-3-yl)-amine] | –
< 0.1 µM | < 0.1 µM | – | – | 1 to 20 µM | – | < 0.1 µM | N#CCc1ccc(Nc2nc(Nc3cc(C4CC4)[nH]n3)c3ccccc3n2)cc1 [IIc-31, [2-(4-Cyanomethylphenylamino)-quinazolin-4-yl]-(5-cyclopropyl-2H-pyrazol-3-yl)-amine] | –
0.1 to 1 µM | < 0.1 µM | < 1 µM | – | – | 249 to 250 °C | – | Cc1cccc(Sc2nc(Nc3cc(C)[nH]n3)c3ccccc3n2)c1 [IIa-14, [2-(3-Methylphenylsulfanyl)-quinazolin-4-yl]-(5-methyl-2H-pyrazol-3-yl)-amine] | –
< 0.1 µM | < 0.1 µM | – | – | 1 to 20 µM | – | < 0.1 µM | c1ccc2c(Nc3cc(C4CC4)[nH]n3)nc(Nc3ccc4[nH]ncc4c3)nc2c1 [IIc-37, (5-Cyclopropyl-2H-pyrazol-3-yl)-[2-(1H-indazol-5-ylamino)-quinazolin-4-yl]-amine] | –
< 0.1 µM | < 0.1 µM | < 1 µM | < 1 µM | – | > 250 °C | < 0.1 µM | Cc1cc(Nc2nc(Nc3ccc(CC#N)cc3)nc3ccccc23)n[nH]1 [IIc-15, [2-(4-Cyanomethylphenylamino)-quinazolin-4-yl]-(5-methyl-2H-pyrazol-3-yl)-amine] | –
1 to 7 µM | < 0.1 µM | 1 to 20 µM | – | – | 258 to 259 °C | – | CC(=O)Nc1ccc(Sc2nc(Nc3cc(C)[nH]n3)c3cccc(O)c3n2)cc1 [IIa-52, [2-(4-Acetamido-phenylsulfanyl)-8-hydroxyquinazolin-4-yl]-(5-methyl-2H-pyrazol-3-yl)-amine] | –
– | – | < 1 µM | < 1 µM | – | 294 to 297 °C | – | N#CCc1ccc(Nc2nc(Nc3cc(C4CC4)[nH]n3)cc(-c3ccccc3)n2)cc1 [IIIc-4, [2-(4-cyanomethylphenylamino)-6-phenyl-pyrimidin-4-yl]-(5-cyclopropyl-2H-pyrazol-3-yl)-amine] | –
< 0.1 µM | < 0.1 µM | – | – | 1 to 20 µM | 228 to 231 °C | < 0.1 µM | COC(=O)c1cccc(Nc2nc(Nc3cc(C4CC4)[nH]n3)c3ccccc3n2)c1 [IIc-39, (5-Cyclopropyl-2H-pyrazol-3-yl)-[2-(3-methoxycarbonylphenylamino)-quinazolin-4-yl]-amine] | –
< 0.1 µM | < 0.1 µM | – | – | 1 to 20 µM | – | < 0.1 µM | c1ccc2c(Nc3cc(C4CC4)[nH]n3)nc(Nc3ccc4cc[nH]c4c3)nc2c1 [IIc-22, (5-Cyclopropyl-2H-pyrazol-3-yl)-[2-(1H-indol-6-ylamino)-quinazolin-4-yl]-amine] | –
0.1 to 1 µM | < 0.1 µM | – | – | – | 207 to 211 °C | < 0.1 µM | COc1cccc(Nc2nc(Nc3cc(C4CC4)[nH]n3)c3ccccc3n2)c1 [IIc-44, (5-Cyclopropyl-2H-pyrazol-3-yl)-[2-(3-methoxyphenylamino)-quinazolin-4-yl]-amine] | –
< 0.1 µM | < 0.1 µM | – | – | – | 177 °C | < 0.1 µM | CN(Cc1cccnc1)c1nc(Nc2cc(C3CC3)[nH]n2)c2ccccc2n1 [IIc-3] | –
1 to 7 µM | < 0.1 µM | – | – | – | 153 °C (dec.) | – | CC(=O)Nc1ccc(Sc2nc(Nc3cc(C)n[nH]3)c3ccc(OCCCN4CCOCC4)cc3n2)cc1 [IIa-45, [2-(4-Acetamidophenylsulfanyl)-7-(3-morpholin-4-yl-propoxy)-quinazolin-4-yl]-(5-methyl-2H-pyrazol-3-yl)-amine] | 1 to 6 µM
< 0.1 µM | < 0.1 µM | – | – | 1 to 20 µM | 241 to 242 °C | < 0.1 µM | Cc1cccc(Nc2nc(Nc3cc(C4CC4)[nH]n3)c3ccccc3n2)c1C [IIc-42, (5-Cyclopropyl-2H-pyrazol-3-yl)-[2-(2,3-dimethylphenylamino)-quinazolin-4-yl]-amine] | –
< 0.1 µM | < 0.1 µM | – | – | – | 265 to 267 °C | < 0.1 µM | c1ccc(OCc2nc(Nc3cc(C4CC4)[nH]n3)c3ccccc3n2)cc1 [IId-1, (5-Cyclopropyl-2H-pyrazol-3-yl)-(2-phenoxymethyl-quinazolin-4-yl)-amine] | –

SMILES | Ki (GSK-3β (AA 1-420)) | Ki (Aurora-2) | Ki (CDK-2/Cyclin A) | Ki (activated ERK2) | Ki (AKT-3) | melting point | Ki (human Src kinase; read-out: Ki value on SRC) | Ki (human Src kinase; read-out: Ki value for SRC)
c1ccc(Nc2nc(Nc3cc(C4CC4)[nH]n3)c3ccccc3n2)cc1 [IIc-18, (5-Cyclopropyl-2H-pyrazol-3-yl)-(2-phenylamino-quinazolin-4-yl)-amine] | < 0.1 µM | < 0.1 µM | – | 1 to 20 µM | 1 to 20 µM | 234 °C | < 0.1 µM | –
CC(=O)Nc1ccc(Sc2nc(Nc3cc(C)[nH]n3)c3ccccc3n2)cc1 [IIa-38, [2-(4-Acetamidophenylsulfanyl)-quinazolin-4-yl]-(5-methyl-2H-pyrazol-3-yl)-amine] | 0.1 to 1 µM | < 0.1 µM | 1 to 20 µM | – | – | – | – | –
CCCS(=O)(=O)Nc1ccc(Sc2nc(Nc3cc(C)n[nH]3)c3ccccc3n2)cc1 [IIa-54, (5-Methyl-2H-pyrazol-3-yl)-{2-[4-(propane-1-sulfonylamino)-phenylsulfanyl]-quinazolin-4-yl}-amine] | 0.1 to 1 µM | < 0.1 µM | 1 to 20 µM | – | – | 272 to 273 °C | – | 1 to 6 µM
COc1cccc2c(Nc3cc(C)n[nH]3)nc(Sc3ccc(NC(C)=O)cc3)nc12 [IIa-44, [2-(4-Acetamidophenylsulfanyl)-8-methoxy-quinazolin-4-yl]-(5-methyl-2H-pyrazol-3-yl)-amine] | – | < 0.1 µM | 1 to 20 µM | – | – | 247 to 249 °C | – | 1 to 6 µM
CC(=O)Nc1ccc(Sc2nc(Nc3cc(C4CC4)[nH]n3)c3ccccc3n2)cc1 [IIa-36, [2-(4-Acetamido-phenylsulfanyl)-quinazolin-4-yl]-(5-cyclopropyl-2H-pyrazol-3-yl)-amine] | – | – | < 1 µM | 1 to 20 µM | – | – | – | –
